Results reported in patent US5089623A, “Certain imidate insecticides” (Imperial Chemical Industries Plc, priority 1990, dated 1992).

Columns and labels:
Type in all cases: in vivo
[1] = tested on: Housefly [Musca domestica]; experiment: Housefly insecticidal test (HF); details: per 25 female houseflies, 48 hours
[2] = tested on: Tobacco Budworm [Heliothis virescens (Fabricius)] eggs; experiment: Tobacco budworm egg test (TBW-E); details: percent in solution
From the text: Eggs: Paper towel patches of 2-day old eggs of the tobacco budworm were dipped in acetone solutions of the test compound and placed in petri dishes containing a portion of larval rearing medium. […] Test concentrations ranged from 0.1% downward.

[3] = tested on: Cabbage Looper [Trichoplusia ni (Hubner)]; experiment: Cabbage looper test (CL); details: second-instar larvae, 3-5 days, percent in solution

Row | SMILES | LC50 HF [1] [µg] | LC50 TBW E [2] [%] | LC50 CL [3] [%]
1 | CCC(=Nc1ccc(C(C)C)cc1)OCc1cccc(Oc2ccc(F)cc2)c1 [Compound 320] | > 100 | > 0.1 | 0.0075
2 | CCC(CC)C(=Nc1ccc(C(C)C)cc1)OCc1cccc(Oc2ccccc2)c1 [Compound 321] | > 100 | > 0.1 | 0.05
3 | CC(C)c1ccc(N=C(OCc2cccc(Oc3ccc(F)cc3)c2)C(C)(C)C)cc1 [Compound 322] | > 100 | > 0.1 | 0.007
4 | CC(C)C(=Nc1ccc(F)c(Cl)c1)OCc1cc(F)cc(Oc2ccc(F)cc2)c1 [Compound 327] | > 100 | > 0.1 | 0.005
5 | CC(C)C(=Nc1ccc(OC(F)(F)F)c(Cl)c1)OCc1cc(F)cc(Oc2ccc(F)cc2)c1 [Compound 328] | > 100 | > 0.1 | 0.03
6 | CC(C)CC(=Nc1ccc(C(C)C)cc1)OCc1cccc(Oc2ccc(F)cc2)c1 [Compound 329] | 7 | > 0.1 | 0.033
7 | CC(C)C(=Nc1ccc(F)c(Cl)c1)OCc1cccc(Oc2ccc(I)cc2)c1 [Compound 447] | 33 | > 0.1 | 0.0009
8 | CC(C)C(=Nc1ccc(F)c(Cl)c1)OCc1ccc(Cl)c(Oc2ccc(F)cc2)c1 [Compound 448] | 16 | 0.03 | 0.003
9 | Fc1c(F)c(F)c(COC(=Nc2cccc(Cl)c2Cl)C(Cl)Cl)c(F)c1F [Compound 454] | > 100 | > 0.1 | 0.03
10 | Cc1c(COC(=Nc2ccc(Cl)cc2)C(C)C)cccc1-c1ccccc1 [Compound 455] | > 100 | > 0.1 | 0.0025
11 | Cc1c(COC(=Nc2ccc(F)cc2)C(C)C)cccc1-c1ccccc1 [Compound 458] | 100 | > 0.05 | 0.007
12 | CC(C)C(=Nc1ccc2c(c1)OCO2)OCc1c(F)c(F)c(F)c(F)c1F [Compound 464] | > 100 | > 0.1 | 0.08
13 | CC(C)C(=Nc1ccc2c(c1)OCO2)OCc1cccc(Oc2ccccc2)n1 [Compound 467] | 6 | 0.04 | 0.003
14 | CC(C)C(=Nc1ccc2c(c1)OC(C)(C)O2)OCc1cccc(Oc2ccc(Cl)cc2)n1 [Compound 468] | 50 | > 0.1 | > 0.1
15 | CC(C)C(=Nc1cccc(C(F)(F)F)c1)OCc1cccc(Oc2ccncc2)c1 [Compound 469] | 40 | > 0.1 | 0.02
16 | CC(C)C(=Nc1ccc(F)c(Cl)c1)OCc1cccc(Oc2ccncc2)c1 [Compound 470] | 25 | > 0.1 | 0.02
17 | CC(C)C(=Nc1ccc(F)c(Cl)c1)OCc1cccc(OCc2ccccc2)c1 [Compound 472] | > 100 | > 0.1 | 0.0025
18 | CC(C)C(=Nc1ccc(F)c(Cl)c1)OCc1ccc(F)c(Br)c1 [Compound 473] | > 100 | > 0.1 | 0.025

Row | SMILES | LC50 HF [1] [µg] | LC50 TBW E [2] [%] | LC50 CL [3] [%]
19 | CC(C)C(=Nc1ccc(F)c(Cl)c1)OCc1coc(Cc2ccccc2)c1 [Compound 474] | 8 | > 0.1 | 0.0012
20 | CC(C)C(=Nc1cccc(C(F)(F)F)c1)OCc1ccc(OCc2ccccc2)cc1 [Compound 476] | > 100 | > 0.1 | 0.015
21 | C=CCOc1cccc(COC(=Nc2ccc(Cl)c(Cl)c2)C(C)C)c1 [Compound 481] | > 100 | > 0.1 | 0.015
22 | CC(C)C(=Nc1ccc(Cl)cc1)OCc1coc(Cc2ccccc2)c1 [Compound 484] | 16 | > 0.1 | 0.003
23 | CC(C)C(=Nc1ccc(F)c(F)c1)OCc1coc(Cc2ccccc2)c1 [Compound 485] | 24 | > 0.1 | > 0.1
24 | CC(C)C(=Nc1ccc(F)c(Cl)c1)OCc1ccc(OCc2ccc(F)cc2)cc1 [Compound 487] | > 100 | > 0.1 | 0.023
25 | CC(C)C(=Nc1cccc(C(F)(F)F)c1)OCc1ccc(OCc2ccc(F)cc2)cc1 [Compound 488] | > 100 | > 0.1 | 0.025
26 | CC(C)C(=Nc1cccc(C(F)(F)F)c1)OCc1cccc(OCc2ccc(F)cc2)c1 [Compound 489] | > 100 | > 0.1 | < 0.1
27 | CC(C)C(=Nc1ccc(F)cc1)OCc1coc(Cc2ccccc2)c1 [Compound 491] | 9 | 0.08 | 0.0028
28 | CC(C)C(=Nc1cccc(C(F)(F)F)c1)OCc1cccc(Oc2ccc(Br)cc2)n1 [Compound 493] | 36 | 0.05 | 0.0008
29 | Cc1ccc(Oc2cccc(COC(=Nc3ccc(F)c(Cl)c3)C(C)C)n2)cc1 [Compound 494] | 34 | > 0.1 | 0.003
30 | Cc1ccc(Oc2cccc(COC(=Nc3cccc(C(F)(F)F)c3)C(C)C)n2)cc1 [Compound 495] | > 100 | 0.1 | 0.012
31 | CC(C)C(=Nc1ccc(C(C)(C)C)cc1)OCc1cccc(Oc2ccccc2)n1 [Compound 496] | > 100 | > 0.1 | 0.006
32 | CC(C)C(=Nc1ccc(C(C)(C)C)cc1)OCc1cccc(Oc2ccc(Cl)cc2)n1 [Compound 497] | > 100 | > 0.1 | 0.0075
33 | CC(C)C(=Nc1ccc(F)c(Cl)c1)OC(C)c1cccc(Oc2ccccc2)n1 (stereo not drawn) [Compound 498] | 49 | > 0.1 | 0.002
34 | CC(C)C(=Nc1cccc(C(F)(F)F)c1)OC(C)c1cccc(Oc2ccccc2)n1 (stereo not drawn) [Compound 499] | 63 | > 0.1 | 0.0024
35 | COCc1c(F)c(F)c(COC(=Nc2ccc3c(c2)OCO3)C(C)C)c(F)c1F [Compound 501] | 20 | > 0.1 | 0.00045
